Experimental data published in patent publication US20190008773A1, “MAGNETIC FIELD SENSITIVE NANO COMPLEX AND METHOD FOR MANUFACTURING THE SAME” (GWANGJU INSTITUTE OF SCIENCE AND TECHNOLOGY, priority 2017, published 2019).

Test system: cell
Experiment: cytotoxicity in a physiological environment (FIG. 8A)
Type: cell-based
Conditions: no alternating magnetic field

SMILES: COc1cccc2c1C(=O)c1c(O)c3c(c(O)c1C2=O)C[C@@](O)(C(=O)CO)C[C@@H]3O[C@H]1C[C@H](N)[C@H](O)[C@H](C)O1 [free DOX, doxorubicin]
- non-specific cytotoxicity: high
